This is an account of results in US6281214A, “Biphenyl derivatives” (Eisai Co., Ltd, priority 1994, dated 2001).

Series [1] concerns the target T1, dopamine D2 receptor (Rattus norvegicus, UniProt P61169).
T1 construct: the receptor fraction prepared from the corpus striatum was molten and suspended; from tissue; host or cells: corpus striatum of SD rats (membrane fraction)
Nature of the series: dopamine D2 receptor binding test ([3H] Spiperone Binding Test). Further details: species or system SD rats. The following applies: 1 nM [3H] Spiperone, rat corpus striatum, room temperature, 60 minutes. The essentials:
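Rat (SD, 6–8 weeks) corpus striatum membranes in 50 mM Krebs-Tris pH 7.4 were incubated with 1 nM [3H]spiperone at room temperature for 60 minutes, with nonspecific binding defined by excess spiperone. IC50 came from probit analysis; Ki was derived using radioligand concentration and Scatchard Kd.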

Series [2] addresses T2, serotonin S2 receptor (Rattus norvegicus, UniProt P14842).
T2 construct: The receptor fraction prepared from the cortex was molten and suspended; from tissue; host or cells: cerebral cortex of SD rats (membrane fraction)
Briefly: serotonin S2 receptor binding test ([3H] Ketanserin Binding Test). The following applies: 1 nM [3H] Ketanserin, rat cortex, 37° C., 15 minutes. More on the design: species or system SD rats. The essentials: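 Ki values came from probit IC50s corrected for radioligand concentration and Kd (Scatchard). Binding used 1 nM [3H]ketanserin with SD rat cortex membrane fractions, 15 min at 37 °C in Tris-HCl pH 7.4. Bound radioactivity was measured after GF/B filtration, with methysergide for nonspecific binding.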

For series [3], the target named is adrenergic α1 receptor. Briefly: adrenergic α1 receptor binding test ([3H] Prazosin Binding Test). The following applies: 1 nM [3H] Prazosin, rat cortex, room temperature, 60 minutes. More on the design: species or system SD rats. The method in brief: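 Rat (SD, 6-8 weeks) cerebral cortex membranes in 50 mM Tris-HCl pH 7.4 incubated with 1 nM [3H]prazosin for 60 min at room temperature; nonspecific binding defined with phentolamine. IC50 by probit method, converted to Ki using radioligand concentration and Scatchard-derived Kd.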

The conditions of series [4]: background, cited from earlier work; for extrapyramidal syndrome as adverse reaction: D2 receptor antagonists.
Where [5] appears, read: read-out: Ki value, dopamine D2 receptor.

As a reminder, the Ki is a dissociation constant, usually derived from enzyme kinetics or from competition with a known ligand.

The structures appear in SMILES notation. Where a name gives a salt, the structure may show the parent alone. Read-outs that look alike come from different tables or passages of the source. Bounds are passed on as bounds.

T2 sequence (P14842 whole entry): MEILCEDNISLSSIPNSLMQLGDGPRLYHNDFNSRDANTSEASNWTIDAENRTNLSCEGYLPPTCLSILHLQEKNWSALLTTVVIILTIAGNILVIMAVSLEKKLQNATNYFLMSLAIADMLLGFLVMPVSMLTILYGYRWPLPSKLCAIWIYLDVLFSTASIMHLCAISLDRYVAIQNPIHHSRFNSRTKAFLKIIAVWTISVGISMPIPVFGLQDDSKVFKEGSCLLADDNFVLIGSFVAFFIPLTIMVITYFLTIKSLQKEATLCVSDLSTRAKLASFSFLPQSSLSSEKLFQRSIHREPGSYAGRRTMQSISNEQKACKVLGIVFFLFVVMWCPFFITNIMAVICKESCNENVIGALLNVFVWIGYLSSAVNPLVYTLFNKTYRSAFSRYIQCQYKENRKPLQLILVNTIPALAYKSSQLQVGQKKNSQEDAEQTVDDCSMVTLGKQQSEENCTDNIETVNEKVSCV
T1 sequence (P61169 whole entry): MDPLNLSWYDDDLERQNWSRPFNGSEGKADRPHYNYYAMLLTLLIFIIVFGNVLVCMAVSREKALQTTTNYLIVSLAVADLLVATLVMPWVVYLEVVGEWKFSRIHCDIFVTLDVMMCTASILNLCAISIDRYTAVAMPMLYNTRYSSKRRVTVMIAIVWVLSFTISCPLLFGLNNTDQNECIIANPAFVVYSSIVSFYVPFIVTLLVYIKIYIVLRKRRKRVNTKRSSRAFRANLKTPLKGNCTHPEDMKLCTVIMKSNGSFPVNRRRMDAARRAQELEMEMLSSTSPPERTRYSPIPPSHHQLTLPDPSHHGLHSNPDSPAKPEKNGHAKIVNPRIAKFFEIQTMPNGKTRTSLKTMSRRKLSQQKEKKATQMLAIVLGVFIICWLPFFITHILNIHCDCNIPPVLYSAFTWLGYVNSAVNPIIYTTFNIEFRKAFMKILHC

With `CCC(F)c1cc(N2CCN(CCc3ccccn3)CC2)cc(-c2ccccc2C#N)c1Cl` (stereo not shown) [Example 214, 1-[2-(2-Pyridyl)ethyl]-4-[3-(2-cyanophenyl)-4-chloro-5-(1-fluoropropyl)]phenylpiperazine], the Ki in series [1] (setting [5]) worked out at 5.15 nM; in series [2], 3.78 nM; in series [3], 51.7 nM.
Consider `CCC(OCc1ccccn1)c1cc(N2CCN(CC)CC2)cc(-c2ccccc2)c1OC` (stereo not shown) [Example 115, 1-Ethyl-4-{3-phenyl-4-methoxy-5-[1-(2-pyridylmethoxy)propyl]}phenylpiperazine], for which the inhibitory constant (Ki) in series [1] (setting [5]) was 81.4 nM; in series [2] it was 212 nM; in series [3], above 1000 nM.
On the same counts, the results for `O=C(Cc1ccccc1)c1cc(N2CCNCC2)cc(-c2ccccc2)c1O` [Example 118, 1-(3-Phenyl-4-hyroxy-5-phenylaectyl)phenylpiperazine] are 149 nM, 468 nM and above 1000 nM.
With `CCC(F)c1cc(N2CCN(C)CC2)cc(-c2ccccc2)c1Cl` (stereo not shown) [Example 206], the Ki in series [1] (Ki value, dopamine D2 receptor) was found to be 1.06 nM; in series [2], 4.29 nM; in series [3], 47.8 nM.
`CCC(F)c1cc(N2CCN(CCO)CC2)cc(-c2ccccc2C)c1Cl` (stereo not shown) [Example 26, 1-(2-Hydroxyethyl)-4-[3-(2-tolyl)-4-chloro-5-(1-fluloropropyl)]phenylpiperazine]: the Ki in series [1] (setting [5]) is 2.67 nM; in series [2], 21.6 nM; in series [3], above 1000 nM.
Take `CCC(O)c1cc(N2CCN(CC)CC2)cc(-c2ccccc2)c1Cl` (stereo not shown) [Example 138, 1Ethyl-4-[3-phenyl-4-chloro-5-(1-hydroxypropyl)]phenylpiperazine]: the results for the Ki in series [1] (setting [5]), in series [2] and in series [3] were 2.89 nM, 25 nM and 9.33 nM, respectively.
On the same counts, the results for `CCCS(=O)(=O)Nc1cc(N2CCN(CC)CC2)cc(-c2ccccc2C=O)c1Cl` [Example 196, 1-(2-Ethyl)-4-[3-(2-formylphenyl)-4-chloro-5-propanesulfonylamino]phenylpiperazine] are 5.52 nM, 13.2 nM and 744 nM.
`CCC(F)c1cc(N2CCN(CC)CC2)cc(-c2ccccc2COC)c1Cl` (stereo not shown) [Example 145, 1-Ethyl-4-[3-(2-methoxymethylphenyl)-4-chloro-5-(1-fluoropropyl)]phenylpiperazine]: the Ki is 8.28 nM in series [1] (setting [5]), 72.5 nM in series [2] and above 1000 nM in series [3].
Consider `O=C(CCCN1CCC(O)(c2ccc(Cl)cc2)CC1)c1ccc(F)cc1` [haloperidol], for which, in series [4], the “extrapyramidal syndrome as adverse reaction” value is listed as “causing extrapyramidal syndrome”.
Regarding `CCN(CC)CCNC(=O)c1cc(S(C)(=O)=O)ccc1OC` [Tiapride], in series [4], the “extrapyramidal syndrome as adverse reaction” value is “causing extrapyramidal syndrome”.
`CC[C@@H](F)c1cc(N2CCN(CCO)CC2)cc(-c2ccc(F)cc2C)c1Cl` [Example 223, 1-(2-Hydroxyethyl)-4-{3-[2-(4-fluorotolyl)]-4-chloro-5-[1-(R)-fluoropropyl]}phenylpiperazine]: the values for the inhibitory constant (Ki) in series [1] (setting [5]), in series [2] and in series [3] were 6.61 nM, 1860 nM and 1510 nM, respectively.
On to `CCC(F)c1cc(N2CCN(CC)CC2)cc(-c2ccccc2OC)c1Cl` (stereo not shown) [Example 143, 1-Ethyl-4-[3-(2-methoxyphenyl)-4-chloro-5-(1-fluoropropyl)]phenylpiperazine], for which the figures for the inhibitory constant (Ki) in series [1] (setting [5]), in series [2] and in series [3] were 16.9 nM, 156 nM and above 1000 nM, respectively.
In the case of `CCN1CCN(c2cc(-c3ccccc3C)c(F)c(S(C)(=O)=O)c2)CC1` [Example 155], the inhibition constant (Ki) in series [1] (setting [5]) was 41 nM; in series [2], 180 nM; in series [3] it was 845 nM.
`CCN1CCN(c2cc(-c3ccccc3)c(OC)c(C(C)(C)O)c2)CC1` [Example 80]: the Ki in series [1] (setting [5]) is 810 nM; in series [2], 177 nM; in series [3] it was above 1000 nM.
`CCCc1cc(N2CCN(CC)CC2)cc(-c2ccc(OC)cc2)c1OC` [Example 73, 1-Ethyl-4-[3-(4-methoxphenyl)-4-methoxy-5-propyl]phenylpiperazine]: the Ki in series [1] (setting [5]) came to 577 nM; in series [2], 635 nM; in series [3], 332 nM.
Regarding `CCN1CCN(c2cc(-c3ccccc3)c(OC)c(C(O)Cc3ccccc3)c2)CC1` (stereo not shown) [Example 94, 1-Etyl-4-[3-phenyl-4-methoxy-5-(1-hydroxyphenethyl)]phenylpiperazine], the results for the inhibition constant Ki in series [1] (setting [5]), in series [2] and in series [3] were 13.8 nM, 109 nM and 600 nM, respectively.
As to `CCN1CCN(c2cc(N)c(OC)c(-c3ccccc3)c2)CC1` [Example 110, 1-Ethyl-4-(3-phenyl-4-methoxy-5-amino)phenylpiperazine], the Ki in series [1] (setting [5]), in series [2] and in series [3] was above 1000 nM throughout.
Regarding `CN1CCN(c2cc(NS(C)(=O)=O)c(Cl)c(-c3ccccc3Cl)c2)CC1` [Example 188, 1-Methyl-4-[3-(2-chlorophenyl)-4-chloro-5-methanesulfonylamino]phenylpiperazine], the values for the inhibition constant (Ki) in series [1] (setting [5]), in series [2] and in series [3] were 1.33 nM, 47.8 nM and 19 nM, respectively.
With `CCN1CCN(c2cc(NS(=O)(=O)c3ccc(F)cc3)c(Cl)c(-c3ccccc3C)c2)CC1` [Example 137, 1-Ethyl-4-[3-(2-tolyl)-4-chloro-5-(4-fluorophenylsulfonylamino)]phenylpiperazine], the figures for the Ki in series [1] (setting [5]), in series [2] and in series [3] were 0.64 nM, 144 nM and 312 nM, respectively.
For `CCN1CCN(c2cc(COCC3CC3)c(Cl)c(-c3ccccc3C)c2)CC1` [Example 176, 1-Ethyl-4-[3-(2-tolyl)-4-chloro-5-cyclopropylmethoxymethyl]phenylpiperazine], the Ki in series [1] (setting [5]) is above 100 nM; in series [2], 178 nM; in series [3], above 1000 nM.
`CCC(F)c1cc(N2CCN(C)CC2)cc(-c2ccccc2C#N)c1Cl` (stereo not shown) [Example 20, 1-Methyl-4-[3-(2-cyanophenyl)-4-chloro-5-(1-fluoropropyl)]phenylpiperazine]: the Ki in series [1] (setting [5]) was determined as 2.82 nM; in series [2], 6.11 nM; in series [3], 314 nM.
As to `CCC(O)c1cc(N2CCN(CC)CC2)cc(-c2ccccc2)c1OC` (stereo not shown) [Example 83, 1-Ethyl-4-[3-phenyl-4methoxy-5-(1-hydroxypropyl)]phenylpiperazine], the inhibition constant Ki was 485 nM in series [1] (setting [5]), 84.5 nM in series [2] and above 1000 nM in series [3].
Take `Cc1nc2n(c(=O)c1CCN1CCC(c3noc4cc(F)ccc34)CC1)CCCC2` [Risperidone, risperidone]: the “blood-pressure drop as adverse reaction” value in series [4] (owing to high α1 blocking activity) is “blood-pressure drop occurs as an adverse reaction”. In series [4], the “QTC interval in electrocardiogram” value is “lengthened to induce arrhythmia”.
`CCN1CCN(c2cc(C(=O)OC)c(OC)c(-c3ccccc3)c2)CC1` [Example 74, 1-Ethyl-4-(3-phenyl-4-methoxy-5-methoxycarbonyl)phenylpiperazine]: the Ki in series [1] (setting [5]) was above 1000 nM; in series [2], 374 nM; in series [3] it was above 1000 nM.
With `CC(C)S(=O)(=O)Nc1cc(N2CCN(C)CC2)cc(-c2ccccc2Cl)c1Cl` [Example 182, 1-Methyl-4-(3-(2-chlorophenyl)-4-chloro-5-isopropylsulfonylamino]phenylpiperazine], the inhibition constant (Ki) is 2.34 nM in series [1] (setting [5]), 145 nM in series [2] and 186 nM in series [3].
As to `CCCS(=O)(=O)Nc1cc(N2CCN(CC)CC2)cc(-c2ccccc2C)c1Cl` [Example 17, 1-ethyl-4-[3-(2-tolyl)-4-chloro-5-propanesulfonylamino]phenylpiperazine hydrochloride], the figures for the Ki in series [1] (setting [5]), in series [2] and in series [3] (hydrochloride) were above 100 nM, 374 nM and 550 nM, respectively.
Turning to `CC[C@H](F)c1cc(N2CCN(C)CC2)cc(-c2ccccc2C)c1Cl` [Example 221, 1-Methyl-4-{3-(2-tolyl)-4-chloro-5-[1-(S)-fluoropropyl]}phenylpiperazine], the inhibition constant Ki in series [1] (setting [5]) was found to be 3.45 nM; in series [2], 4.53 nM; in series [3], 486 nM.
